Data set [1] is described as follows: Relative thermodynamic solubility in water at RT by HPLC. In kind it is physicochemical. On the procedure:
The relative solubility of the above mentioned 4 ETP monoethanolamine salt Forms was studied in water at RT. The validity of any solubility measurement requires that the crystalline form must remain stable with respect to any phase conversion taking place during the determination of the equilibrium solubility.
This suspension was stirred 24 h at RT in order to reach the equilibrium. Then, a sample was filtered and the resulting filtrate was analysed by HPLC by duplicate. The average peak area of ETP gave a relative value of the thermodynamic solubility of each form that can be compared with each other. The solids recovered after filtration were also analysed by XRPD to check that no crystalline phase transformation occurred during the slurring.
HPLC ETP peak area in each of the different forms analysed was measured in order to establish their relative solubility. The HPLC analyses were performed by duplicate for each ETP monoethanolamine salt.

The nature of data set [2]: Crystalline stability of Form D1 under accelerated ICH guideline conditions, XRPD. The data set is classed as physicochemical. The source says:
This sample was periodically analysed by XRPD in order to observe possible crystalline transformation or amorphization. Moreover, a sample of ETP monoethanolamine salt Form D1 stored on a XRPD silicon holder was exposed in a climatic chamber. It is worth noting that these stability conditions are harsher than standard stability conditions due to the high surface of exposition of the solid stored on the XRPD silicon holder. The samples were periodically analysed by XRPD to observe possible crystalline transformation.

Data set [3] can be described thus: Preliminary stability in water at RT, slurry analysed by XRPD. The data set is classed as physicochemical. To be noted: XRPD at 1, 3, 6 and 24 h. The protocol: A preliminary test stability study in water at RT of 4 ETP monoethanolamine salt Forms was performed in order to observed possible crystalline transitions. A sample of each crystalline form was slurried in water at RT and periodically analysed by XRPD (1, 3, 6 and 24 h) in order to detect possible crystalline transformation.

The nature of data set [4]: Hygroscopicity study by DVS (Dynamic Vapour Sorption). The data set is classed as physicochemical. The note with it: 25° C.; for humidity adsorbed (water uptake) / hygroscopicity (water uptake): at 95% RH. On the procedure: Hygroscopicity study was determined by DVS (Dynamic Vapour Sorption) with a Q5000 TA instrument. This is a gravimetric technique that measures how much water is absorbed or desorbed by a sample at different relative humidity (RH). At each RH, the sample mass must be allowed to reach gravimetric equilibrium (or surpassed time limit) before progressing to the next humidity level. Sorption and desorption isotherms were performed at 25° C. over a range of 0-95% RH. The samples gently milled were not previously dried but they were exposed to 0% RH until a stable weight was reached before starting the DVS cycle. This equilibration step allows possible adsorbed humidity to be eliminated.

The nature of data set [5]: Stability study of Form E, atmospheric and ICH accelerated conditions, XRPD. The note with it: after 1 day of exposition. The data set is classed as physicochemical. On the procedure:
In the first ETP monoethanolamine salt Form E was exposed to atmospheric conditions for 1 day was unstable, and a new form very similar to Form II (ETP bisethanolamine salt) described in U.S. Pat. No. 8,372,822B2 was recovered according to XRPD analysis. In the second ETP monoethanolamine salt Form E was exposed to ICH guideline accelerated conditions (40° C./75 RH %). Under these conditions, Form E converted partially to a new unknown form.

For data set [6] the following is noted: cited from earlier work.

Where a name gives a salt, the structure may show the parent alone.

Compound `CC1=NN(c2ccc(C)c(C)c2)C(=O)/C1=N\Nc1cccc(-c2cccc(C(=O)O)c2)c1O` [Form D1, Eltrombopag monoethanolamine salt] displayed an Intensity test average in data set [1] (average of solubility tests #1 and #2, HPLC ETP peak area) of 2911. The “Solubility test #1 (area counts)” value in data set [1] (saturated water solution, 24 h at RT, HPLC ETP peak area) is 2722 area counts. In addition, the “Solubility test #2 (area counts)” value in data set [1] (saturated water solution, 24 h at RT, HPLC ETP peak area, repeat) came out at 3100 area counts. Besides, the “crystalline stability in words” value in data set [2] (2 months study period) is on record as “remained stable”. Further, the “period the crystalline form remains stable” value in data set [2] (T=40° C./75±5% RH (chamber 45±2° C.-75±5% RH)) was “at least 2 months”. In data set [3], the “crystalline stability slurried in water” value is on record as “remained stable”. The “humidity adsorbed (water uptake)” value in data set [4] is “less than 0.2 % w/w”.
As to “Eltrombopag monoethanolamine salt [Form E]”, the “result of stability study, crystalline form by XRPD” value is on record as “partial conversion to a new form with a main peak at 8.6° (2θ)” in data set [5] (40° C./75 RH %, ICH accelerated) and “Form II+one peak at 8.6° (2θ)” in data set [5] (atmospheric conditions).
Turning to “Eltrombopag monoethanolamine salt [Form H]”, the “crystalline stability slurried in water” value in data set [3] is on record as “remained stable”. Besides, in data set [4], the “humidity adsorbed (water uptake)” value is reported as “up to 1.4 % w/w” and the “hygroscopicity (water uptake)” value was found to be 1.4 w/w.
`CC1=NN(c2ccc(C)c(C)c2)C(=O)/C1=N\Nc1cccc(-c2cccc(C(=O)O)c2)c1O` [Eltrombopag olamine, Eltrombopag bisethanolamine salt]: in data set [6] (at higher temperature endothermic reaction associated with degradation), the “thermally stable up to” value is “about 125 °C”. The solubility in water result in data set [6] is given as “sparingly soluble”.
For the compound “Eltrombopag monoethanolamine salt [Form H2]”, the “hygroscopicity (water uptake)” value in data set [4] (listed as ETP monoethanolamine salt Form H2) is 0.6 w/w.
As for “Eltrombopag monoethanolamine salt [Form D]”, the hygroscopicity in words result in data set [4] (up to 85% RH, listed as ETP monoethanolamine salt Form D) is “not hygroscopic”.

Values taken from patent US11267791B2 (F.I.S.—FABBRICA ITALIANA SINTETICI S.P.A., priority 2018, dated 2022).
